Experimental data from patent publication US20190194179A1, “ANTIBIOTIC COMPOUNDS” (DISCUVA LTD., priority 2016, published 2019).
Where a name gives a salt, the structure may show the parent alone.

Tested on: Neisseria gonorrhoeae
Test: EC50 determination: plate-based broth growth assay (absorbance at 600 nm) of Neisseria gonorrhoeae
Format: cell-based
Conditions: absorbance 600 nm after 20 hours at 37° C./5% CO2, read-out: IC50 (Inhibitory concentration) against Neisseria gonorrhoeae
Summary of the method: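 Mid-log culture diluted to ~10^5 cells/ml as inoculum and grown 20 hours at 37° C./5% CO2 across a 10-point compound dilution series. Growth read as absorbance at 600 nm; EC50 taken from transformed data as the concentration giving 50% response relative to no-compound controls.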

Row | SMILES | IC50 [nM]
1 | FC(F)(F)c1ccc2oc(Nc3nc(Cl)cs3)nc2c1 [Example 100, N-(4-Chlorothiazol-2-yl)-5-(trifluoromethyl)benzo[d]oxazol-2-amine] | ≤ 1000
2 | NC(=O)c1csc(Nc2nc3ccc(C(F)(F)F)cc3o2)n1 [Example 101, 2-((6-(trifluoromethyl)benzo[d]oxazol-2-yl)amino)thiazole-4-carboxamide] | ≤ 1000
3 | NC(=O)c1nnc(Nc2nc3ccc(C(F)(F)F)cc3o2)o1 [Example 102, 5-((6-(Trifluoromethyl)benzo[d]oxazol-2-yl)amino)-1,3,4-oxadiazole-2-carboxamide] | ≤ 100000
4 | FC(F)(F)c1ccc2oc(Nc3nnc(C4CC4)o3)nc2c1 [Example 103, N-(5-Cyclopropyl-1,3,4-oxadiazol-2-yl)-5-(trifluoromethyl)benzo[d]oxazol-2-amine] | ≤ 100
5 | Cc1nnc(Nc2nc3ccc(C(F)(F)F)cc3o2)o1 [Example 104, N-(5-Methyl-1,3,4-oxadiazol-2-yl)-6-(trifluoromethyl)benzo[d]oxazol-2-amine] | ≤ 100
6 | CC(C)c1nnc(Nc2nc3cc(C(F)(F)F)ccc3o2)o1 [Example 108, N-(5-Isopropyl-1,3,4-oxadiazol-2-yl)-5-(trifluoromethyl)benzo[d]oxazol-2-amine] | ≤ 1000
7 | Cc1nnc(Nc2nc3ccc(Cl)cc3o2)o1 [Example 109, 6-Chloro-N-(5-methyl-1,3,4-oxadiazol-2-yl)benzo[d]oxazol-2-amine] | ≤ 100
8 | FC(F)(F)c1ccc2oc(Nc3nnc(C(F)(F)F)o3)nc2c1 [Example 110, 5-(Trifluoromethyl)-N-(5-(trifluoromethyl)-1,3,4-oxadiazol-2-yl)benzo[d]oxazol-2-amine] | ≤ 100000
9 | Cc1nnc(Nc2nc3cc(C(F)(F)F)ccc3o2)s1 [Example 111, N-(5-Methyl-1,3,4-thiadiazol-2-yl)-5-(trifluoromethyl)benzo[d]oxazol-2-amine] | ≤ 1000
10 | Cc1cnc(Nc2nc3cc(C(F)(F)F)ccc3o2)o1 [Example 112, N-(5-Methyloxazol-2-yl)-5-(trifluoromethyl)benzo[d]oxazol-2-amine] | ≤ 1000
11 | Cc1nc(Nc2nc3cc(C(F)(F)F)ccc3o2)oc1C [Example 113, N-(4,5-Dimethyloxazol-2-yl)-5-(trifluoromethyl)benzo[d]oxazol-2-amine] | ≤ 1000
12 | FC(F)(F)c1ccc2nc(Nc3nnco3)oc2c1 [Example 114, N-(1,3,4-Oxadiazol-2-yl)-6-(trifluoromethyl)benzo[d]oxazol-2-amine] | ≤ 1000
13 | Clc1ccc2nc(Nc3nnco3)oc2c1 [Example 115, 6-Chloro-N-(1,3,4-oxadiazol-2-yl)benzo[d]oxazol-2-amine] | ≤ 1000
14 | FC(F)(F)c1ccc2oc(Nc3nnc[nH]3)nc2c1 [Example 116, N-(4H-1,2,4-Triazol-3-yl)-5-(trifluoromethyl)benzo[d]oxazol-2-amine] | ≤ 1000
15 | Cc1nnc(Nc2nc3c(C(F)(F)F)cccc3o2)o1 [Example 118, N-(5-Methyl-1,3,4-oxadiazol-2-yl)-4-(trifluoromethyl)benzo[d]oxazol-2-amine] | ≤ 10000
16 | Cc1nnc(Nc2nc3c(Cl)cccc3o2)o1 [Example 119, 4-Chloro-N-(5-methyl-1,3,4-oxadiazol-2-yl)benzo[d]oxazol-2-amine] | ≤ 1000
17 | Clc1cccc2oc(Nc3nnco3)nc12 [Example 120, 4-Chloro-N-(1,3,4-oxadiazol-2-yl)benzo[d]oxazol-2-amine] | ≤ 1000
18 | Cc1nnc(Nc2nc3cccc(Cl)c3o2)[nH]1 [Example 121, 7-Chloro-N-(5-methyl-4H-1,2,4-triazol-3-yl)benzo[d]oxazol-2-amine] | ≤ 100
19 | Cc1nnc(Nc2nc3ccc(Cl)cc3o2)[nH]1 [Example 122, 6-Chloro-N-(5-methyl-4H-1,2,4-triazol-3-yl)benzo[d]oxazol-2-amine] | ≤ 10000
20 | Cc1nnc(Nc2nc3c(Cl)cc(Cl)cc3o2)[nH]1 [Example 123, 4,6-Dichloro-N-(5-methyl-4H-1,2,4-triazol-3-yl)benzo[d]oxazol-2-amine] | ≤ 1000
21 | Cc1nnc(Nc2nc3c(F)cccc3o2)[nH]1 [Example 124, 4-Fluoro-N-(5-methyl-4H-1,2,4-triazol-3-yl)benzo[d]oxazol-2-amine] | ≤ 1000
22 | Cc1nnc(Nc2nc3cc(C(F)(F)F)c(Cl)cc3o2)[nH]1 [Example 125, 6-chloro-N-(5-methyl-4H-1,2,4-triazol-3-yl)-5-(trifluoromethyl)benzo[d]oxazol-2-amine] | ≤ 100
23 | CN1CCC[C@H]1c1nnc(Nc2nc3cc(C(F)(F)F)ccc3o2)o1 [Example 126, (S)-N-(5-(1-Methylpyrrolidin-2-yl)-1,3,4-oxadiazol-2-yl)-5-(trifluoromethyl)benzo[d]oxazol-2-amine] | ≤ 1000
24 | CN1CCC[C@@H]1c1nnc(Nc2nc3cc(C(F)(F)F)ccc3o2)o1 [Example 127, (R)-N-(5-(1-methylpyrrolidin-2-yl)-1,3,4-oxadiazol-2-yl)-5-(trifluoromethyl)benzo[d]oxazol-2-amine] | ≤ 1000
25 | FC(F)(F)c1ccc2oc(Nc3nnc(CN4CCCC4)[nH]3)nc2c1 [Example 128, N-(5-(Pyrrolidin-1-ylmethyl)-4H-1,2,4-triazol-3-yl)-5-(trifluoromethyl)benzo[d]oxazol-2-amine] | ≤ 1000
26 | Clc1cc(Cl)c2nc(Nc3nnc(CN4CCCC4)[nH]3)oc2c1 [Example 129, 4,6-diChloro-N-(5-(pyrrolidin-1-ylmethyl)-4H-1,2,4-triazol-3-yl)benzo[d]oxazol-2-amine] | ≤ 1000
27 | FC(F)(F)c1ccc2oc(Nc3nnc(C4CCNCC4)o3)nc2c1 [Example 145, N-(5-(Piperidin-4-yl)-1,3,4-oxadiazol-2-yl)-5-(trifluoromethyl)benzo[d]oxazol-2-amine hydrochloride] | ≤ 100000

Next, values leading:

Row | IC50 [nM] | SMILES
28 | ≤ 10000 | Clc1cccc2oc(Nc3nnc(CN4CCCC4)[nH]3)nc12 [Example 130, 4-Chloro-N-(5-(pyrrolidin-1-ylmethyl)-4H-1,2,4-triazol-3-yl)benzo[d]oxazol-2-amine]
29 | ≤ 1000 | Clc1cccc2nc(Nc3nnc(CN4CCCC4)[nH]3)oc12 [Example 131, 7-Chloro-N-(5-(pyrrolidin-1-ylmethyl)-4H-1,2,4-triazol-3-yl)benzo[d]oxazol-2-amine]
30 | ≤ 1000 | Clc1ccc2nc(Nc3nnc(CN4CCCC4)[nH]3)oc2c1 [Example 132, 6-Chloro-N-(5-(pyrrolidin-1-ylmethyl)-4H-1,2,4-triazol-3-yl)benzo[d]oxazol-2-amine]
31 | ≤ 1000 | O=C(c1nnc(Nc2nc3c(Cl)cc(Cl)cc3o2)o1)N1CCCC1 [Example 133, (5-((4,6-Dichlorobenzo[d]oxazol-2-yl)amino)-1,3,4-oxadiazol-2-yl)(pyrrolidin-1-yl)methanone]
32 | ≤ 10000 | O=C(c1nnc(Nc2nc3c(Cl)cccc3o2)o1)N1CCCC1 [Example 134, (5-((4-Chlorobenzo[d]oxazol-2-yl)amino)-1,3,4-oxadiazol-2-yl)(pyrrolidin-1-yl)methanone]
33 | ≤ 100 | Clc1ccc2oc(Nc3nnco3)nc2c1 [Example 135, 5-Chloro-N-(1,3,4-oxadiazol-2-yl)benzo[d]oxazol-2-amine]
34 | ≤ 1000 | CN(C)Cc1nnc(Nc2nc3cc(C(F)(F)F)ccc3o2)[nH]1 [Example 136, N-(5-((Dimethylamino)methyl)-4H-1,2,4-triazol-3-yl)-5-(trifluoromethyl)benzo[d]oxazol-2-amine]
35 | ≤ 100 | FC(F)(F)c1cc2nc(Nc3nnc(CN4CCCC4)[nH]3)oc2cc1Cl [Example 137, 6-Chloro-N-(5-(pyrrolidin-1-ylmethyl)-4H-1,2,4-triazol-3-yl)-5-(trifluoromethyl)benzo[d]oxazol-2-amine]
36 | ≤ 100 | FC(F)(F)c1cc2nc(Nc3nnco3)oc2cc1Cl [Example 138, 6-Chloro-N-(1,3,4-oxadiazol-2-yl)-5-(trifluoromethyl)benzo[d]oxazol-2-amine]
37 | ≤ 1000 | CC(C)c1nnc(Nc2nc3cc(C(F)(F)F)c(Cl)cc3o2)[nH]1 [Example 139, 6-Chloro-N-(5-isopropyl-4H-1,2,4-triazol-3-yl)-5-(trifluoromethyl)benzo[d]oxazol-2-amine]
38 | ≤ 1000 | Cn1cnc(Nc2nc3cc(C(F)(F)F)c(Cl)cc3o2)c1 [Example 140, 6-Chloro-N-(1-methyl-1H-imidazol-4-yl)-5-(trifluoromethyl)benzo[d]oxazol-2-amine]
39 | ≤ 1000 | Cc1nnc(Nc2nc3c(C)cc(Cl)cc3o2)[nH]1 [Example 141, 6-Chloro-4-methyl-N-(5-methyl-4H-1,2,4-triazol-3-yl)benzo[d]oxazol-2-amine]
40 | ≤ 1000 | COCCn1c(C)nnc1Nc1nc2cc(C(F)(F)F)c(Cl)cc2o1 [Example 142, 6-Chloro-N-(4-(2-methoxyethyl)-5-methyl-4H-1,2,4-triazol-3-yl)-5-(trifluoromethyl)benzo[d]oxazol-2-amine]
41 | ≤ 1000 | Cc1nnc(Nc2nc3cc(C(F)(F)F)ccc3o2)n1C [Example 143, N-(4,5-dimethyl-4H-1,2,4-triazol-3-yl)-5-(trifluoromethyl)benzo[d]oxazol-2-amine]
42 | ≤ 100000 | Cc1nnc(Nc2nc3cc(C(F)(F)F)c(Cl)cc3n2C)[nH]1 [Example 144, 6-Chloro-1-methyl-N-(5-methyl-4H-1,2,4-triazol-3-yl)-5-(trifluoromethyl)-1H-benzo[d]imidazol-2-amine]
43 | ≤ 1000 | FC(F)(F)c1ccc2oc(Nc3nnc([C@@H]4CCCN4)o3)nc2c1 [Example 146, (S)-N-(5-(pyrrolidin-2-yl)-1,3,4-oxadiazol-2-yl)-5-(trifluoromethyl)benzo[d]oxazol-2-amine hydrochloride]
44 | ≤ 100000 | FC(F)(F)c1ccc2oc(Nc3nnc(CN4CCNCC4)o3)nc2c1 [Example 147, N-(5-(Piperazin-1-ylmethyl)-1,3,4-oxadiazol-2-yl)-5-(trifluoromethyl)benzo[d]oxazol-2-amine hydrochloride]
